In paper PMC5482315 (Biochimica et Biophysica Acta, 2017):
pKd: −log10 of the molar value. Like-named read-outs stand apart in the source and are kept apart here.

Experiments:
VanSA [1] = biological target: T1, VanSA (Enterococcus faecium, UniProt Q06240); test: VanSA autophosphorylation activity assay (Universal Kinase Activity Kit); type: biochemical, Enterococcus faecium BM4147; conditions: n = 3, result in words; for activity of VanSA (autophosphorylation): 5-fold molar equivalent of ligand, 20 min pre-incubation, 40 min with ATP, 25 mM HEPES pH 8.0, OD620 malachite green; for phosphorylation states of VanSA (activity profile): activity profile over 40 min
T1 sequence (Q06240 whole entry): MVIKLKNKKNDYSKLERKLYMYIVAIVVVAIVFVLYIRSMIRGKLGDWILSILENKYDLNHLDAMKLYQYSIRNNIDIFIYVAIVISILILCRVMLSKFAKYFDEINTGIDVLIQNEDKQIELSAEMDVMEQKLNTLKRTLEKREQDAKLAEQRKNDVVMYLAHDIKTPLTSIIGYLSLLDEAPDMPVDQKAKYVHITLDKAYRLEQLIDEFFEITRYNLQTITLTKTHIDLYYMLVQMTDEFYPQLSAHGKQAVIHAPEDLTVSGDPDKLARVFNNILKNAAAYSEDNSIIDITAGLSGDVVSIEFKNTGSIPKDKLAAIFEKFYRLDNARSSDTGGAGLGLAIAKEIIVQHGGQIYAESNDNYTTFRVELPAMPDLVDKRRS
Description: Assays were conducted as per the instructions provided in the R&D Systems Universal Kinase Activity Kit (Catalogue # EA004, R&D), changing the pH to 8.0; therefore all assays were conducted in 25 mM HEPES pH 8.0, 150 mM NaCl, 10 mM MgCl2, and 10 mM CaCl2. Compatibility checks for the activity of CD39L2 were made in the new conditions. A phosphate standard curve in the new assay conditions was used to determine the conversion factor (CF) for CD39L2 by calculating the slope of OD620 × phosphate input (KH2PO4). This CF was used in later calculations to determine the amount of PO4^2 − produced in later experiments. For ligand screens, VanSA (0.2 μg) was incubated in the absence and presence of 5-fold molar equivalent of ligands for 20 min prior to the initiation of autophosphorylation by the addition of ATP; after which autophosphorylation was allowed to proceed for 40 min before reactions were stopped by the addition of 30 μl Malachite Green Reagent A (ammonium molybdate in 3 M sulphuric acid) at t = 60. 100 μl distilled H2O was added to each well, followed by 30 μl of Malachite Reagent B (malachite green oxalate and polyvinyl alcohol) and the colour allowed to develop for 20 min before determining the optical density at 620 nm.

VanSA [2] = biological target: T1, VanSA; test: thermal denaturation of VanSA by far-UV CD (melting temperature); type: binding, Enterococcus faecium BM4147; conditions: 5-fold molar equivalent of ligand; for Melting temperature (Tm) of VanSA in the presence of screened ligands: monitored at 222 nm, 20–95 °C in 5 °C increments, 10 mM Tris–HCl pH 8.0 ligand stocks, 30 min at 20 °C, VanSA alone 44 ± 0.71
Description: (§1) Ligand-containing samples were performed by addition of 5-fold molar equivalent of ligand stocks in 10 mM Tris–HCl pH 8.0 (control incubated with equivalent volume of 10 mM Tris–HCl pH 8.0). All samples were incubated at 20 °C for 30 min prior to data collection. All data was analysed using CDApps where the mean residue weight of VanSA was taken to be 113. Unless otherwise stated, all spectra presented are difference spectra where all relevant background buffers, ligands etc. have been subtracted. Data acquired when the HT of the detector (PMT) was equal to or > 600 V were excluded from the analyses. Far-UV measurements (180–260 nm) were commonly collected using 0.5 mg/ml of VanSA with bandwidth of 1 nm and 1 s integration time. Data presented in molar extinction (Δε). Temperature denaturation measurements were collected over the temperatures (20 °C–95 °C, in 5 °C increments) in the absence and presence of ligands. Samples were incubated at the initial 20 °C for 30 min after ligand or solvent addition prior to data acquisition. At each temperature step, reactions were incubated for 2 min prior to data collection (1 scan). A final scan was acquired post-temperature ramp after returning to 20 °C and incubation for 20 min before data acquisition. Data was analysed using CDApps to obtain difference spectra where all controls (buffers, ligands, etc.) had been subtracted. Change in CD (mdeg) at a specific wavelength was transferred to OriginPro® 9 and plotted against the corresponding temperature for fitting using Gibbs-Helmholtz equation derived from Boltzmann distribution, [65] sigmoidal two-state denaturation curve to a Boltzmann distribution and the expression modified to include parameters for fitting of thermal denaturation data for the calculation of the melting temperature (Tm).

VanSsc = test system: VanSsc; design: method as in PMID 20383152; conditions: result in words; cited from earlier work
Excerpt: The nature of the activating inducer for VanA-type resistance remains unknown. […] Other proposed ligands include the antibiotic-peptidoglycan precursor complex and the accumulating peptidoglycan precursors as a result of vancomycin mode of action, [54]. Here, we describe the use of in vitro approaches to further characterise the ligand-induced activities of VanSA. || Previous studies identified a 4-amino-acid motif (DQGW) from the predicted extracellular binding region of VanSsc (equivalent to the type B VanS receptor in soil actinomycetes) to which a modified vancomycin photoaffinity probe bound.

VanSA [3] = biological target: T1, VanSA; test: fluorescence emission of VanSA Trp residues with antibiotics; type: binding, Enterococcus faecium BM4147; conditions: excitation 295 nm, equivalent ratio 1:7, 23 °C; n = 3; VanSA alone λmax 334 nm (blue shift)
Description: Fluorescence spectroscopy was carried out using a Chirascan-Plus CD Spectrometer (Applied Photophysics) using 1 cm pathlength cell (1 cm × 1 cm, 4 mm × 4 mm window) at 23 °C, 5 nm bandwidth and 600 V, 295 nm excitation wavelength to excite the VanSA Trp residues was applied to the sample and emission monitored between 300 and 500 nm in 1 nm increments. Samples incubated at 20 °C for 30 min prior to data collection.
Data analysis performed using CDApps to obtain values which have been buffer subtracted and dilution-corrected for all components (F values) (protein only, ligand only, protein-ligand). Fo values were determined by normalisation to the initial value for each condition, followed by calculation of F/Fo using OriginPro® 9. Standard deviation (n = 3) shown by error bars.

[4] = cited from earlier work; for pKd: surface plasmon resonance and other studies, read-out: kd for vancomycin binding
Excerpt: Using model cell wall precursor peptides such as N-acetyl-D-Ala-D-Ala, binding studies in aqueous solution have established that for many glycopeptides, the formation of entropically favourable asymmetric, back-to-back homodimers of the antibiotic, [11], [12] is mediated by sugar-sugar recognition, [13].

VanSA [5] = biological target: T1, VanSA; test: near-UV CD ligand binding screen of VanSA; design: species or system Enterococcus faecium BM4147; conditions: 5-fold molar equivalent of ligand, qualitative
Description: Ligand-containing samples were performed by addition of 5-fold molar equivalent of ligand stocks in 10 mM Tris–HCl pH 8.0 (control incubated with equivalent volume of 10 mM Tris–HCl pH 8.0). All samples were incubated at 20 °C for 30 min prior to data collection. All data was analysed using CDApps where the mean residue weight of VanSA was taken to be 113. Unless otherwise stated, all spectra presented are difference spectra where all relevant background buffers, ligands etc. have been subtracted. Data acquired when the HT of the detector (PMT) was equal to or > 600 V were excluded from the analyses. Far-UV measurements (180–260 nm) were commonly collected using 0.5 mg/ml of VanSA with bandwidth of 1 nm and 1 s integration time. Data presented in molar extinction (Δε). […] Data was analysed using CDApps to obtain difference spectra where all controls (buffers, ligands, etc.) had been subtracted. […]
Near-UV measurements (260–350 nm) were collected using 1 mg/ml of protein using 10 mm pathlength cell, 2 nm bandwidth, 1 nm increments and 1 s integration. […] Change in CD (mdeg) a specific wavelength was monitored, the values transferred to OriginPro® and plotted against respective ligand concentration (M) and fitted with a hill1 binding or biphasic dose response function to determine the kd for binding.

VanSA [6] = biological target: T1, VanSA; test: near-UV CD titration of VanSA with ligand (binding constant); design: species or system Enterococcus faecium BM4147
Description: as §1
Near-UV measurements (260–350 nm) were collected using 1 mg/ml of protein using 10 mm pathlength cell, 2 nm bandwidth, 1 nm increments and 1 s integration. Titration experiments were conducted as described for standard near-UV measurements, with the modification of measurements collected after the addition of incremental volumes of ligand stock as described previously, [70]. Change in CD (mdeg) a specific wavelength was monitored, the values transferred to OriginPro® and plotted against respective ligand concentration (M) and fitted with a hill1 binding or biphasic dose response function to determine the kd for binding.

Compound	activity of VanSA (autophosphorylation) (VanSA [1])	Melting temperature (Tm) of VanSA in the presence of screened ligands (VanSA [2])	fluorescence emission λmax of VanSA upon addition of antibiotic (VanSA [3])	changes in local tertiary structure (tyrosine/tryptophan region) (VanSA [5])	phosphorylation states of VanSA (activity profile) (VanSA [1])	binding mechanism (VanSA [6]; near-UV CD titration)	further results
CC(=O)N[C@@H]1[C@@H](O)[C@H](O)[C@@H](CO)O[C@H]1O [N-acetylglucosamine, N-Acetyl-D-glucosamine]	decreases in activity	–	–	–	–	–	–
CC(=O)N[C@H]1C(O)O[C@H](CO)[C@@H](O)[C@@H]1O[C@H](C)C(=O)O (some centres unmarked) [N-acetylmuramic acid, N-Acetylmuramic acid]	decreases in activity	44 ± 0.63 °C	–	–	–	–	–
CN[C@H](CC(C)C)C(=O)N[C@H]1C(=O)N[C@@H](CC(N)=O)C(=O)N[C@H]2C(=O)N[C@H]3C(=O)N[C@H](C(=O)N[C@H](C(=O)O)c4cc(O)cc(O)c4-c4cc3ccc4O)[C@H](O)c3ccc(c(Cl)c3)Oc3cc2cc(c3O[C@@H]2O[C@H](CO)[C@@H](O)[C@H](O)[C@H]2O[C@H]2C[C@](C)(N)[C@H](O)[C@H](C)O2)Oc2ccc(cc2Cl)[C@H]1O [vancomycin]	significant increases in the activity	79 ± 4.04 °C	328 nm	changes to the tyrosine/tryptophan region	quicker, longer-lived phosphorylation states	one-step process of moderate affinity	binding to VanS of actinomycetes (VanSsc): shown to bind in type A equivalent systems of actinomycetes; pKd ([4]; ref 17): 5.88; pKd ([4]; ref 18): 5.57; pKd ([4]; ref 19): 5.47; thermal stability of VanSA (VanSA [2]; far-UV thermal denaturation, result in words): significant increase of the thermal stability; pKd (VanSA [6]): 4.15; Hill coefficient (VanSA [6]; near-UV CD titration, Hill 1 function): 1.65 ± 0.84
Ala-D-γ-Glu-Lys-D-Ala-D-Ala [peptidoglycan component]	–	51 ± 3.23 °C	–	–	–	–	–
D-Ala-D-Ala	–	48 ± 4.07 °C	–	–	–	–	–
teicoplanin	significant increases in the activity	47 ± 5.08 °C	329 nm	changes to the tyrosine/tryptophan region	quicker, longer-lived phosphorylation states	two-step mechanism	potency compared with vancomycin ([4]; in vitro and in vivo, result in words): greater potency than vancomycin; Hill coefficient (VanSA [6]; near-UV CD titration, Bi Dose Response function, two-step, first value): 0.97 ± 0.77; Hill coefficient (VanSA [6]; near-UV CD titration, Bi Dose Response function, two-step, second value): 0.977 ± 0.76; pKd (VanSA [6]; near-UV CD titration, change in CD (mdeg) at 292 nm, BidoseResponse function, two-step mechanism, first value printed in picture, VanSA 1 mg/ml, n = 4, read-out: Binding constant (kd)): 3.77; pKd (VanSA [6]; near-UV CD titration, change in CD (mdeg) at 292 nm, BidoseResponse function, two-step mechanism, second value printed in picture, VanSA 1 mg/ml, n = 4, read-out: Binding constant (kd)): 4.52
